Laboratory results as given in patent US10718778B2, “Compositions and methods for detecting protein sulfenylation” (THE REGENTS OF THE UNIVERSITY OF MICHIGAN, priority 2014, dated 2020).

Columns and labels:
[1] = tested on: B-cell hybridomas; assay: ratiometric imaging of sulfenylation in live cells by TIRF microscopy; format: cell-based
Experimental: Next, whether DiNap-1F could be used for ratiometric imaging sulfenylation in live cells by Total Internal Reflectance Fluorescence (TIRF) microscopy was tested.

[2] = tested on: live HEK293T cells; assay: labeling of live HEK293T cells

Nc1ccc2c3c(cccc13)C(=O)C(F)=C2O [DiNap-1F]
excitation ratio change over time [1]: clearly elicited a robust excitation ratio change over time | cell permeability ([2]; live mammalian cells): validating cell permeability | labeling of live mammalian cells ([2]; time and concentration dependence): labeled efficiently
